Assay results reported in ChEMBL document CHEMBL4196146, “Targeted Isolation of Neuroprotective Dicoumaroyl Neolignans and Lignans from Sageretia theezans Using in Silico Molecular Network Annotation Propagation-Based Dereplication” (J Nat Prod, 2018).
Active and inactive are the calls of the source. The calls are words filed in the database; no cut-off is given here.

Experiments:
[1] = test system: HT-22; test: Cytotoxicity against mouse HT22 cells assessed as effect on cell viability at >25 uM after 2 hrs by MTT assay; assay type: cell-based; details: ht-22, 2 h
[2] = test system: HT-22; test: Neuroprotective activity against glutamate-induced cell death in mouse HT22 cells assessed as increase in cell viability at 1.6 uM pretreated for 2 hrs followed by glutamate-challenge and measured after 20 hrs by MTT assay (reference value: 23 +/- 3.57%); assay type: functional, cell-based
[3] = test system: HT-22; test: Neuroprotective activity against glutamate-induced cell death in mouse HT22 cells assessed as cell viability at 12.5 uM pretreated for 2 hrs followed by glutamate-challenge and measured after 20 hrs by MTT assay (reference value: 23 +/- 3.57%); assay type: functional; details: for viability at 12.5 µM: read-out: Activity

| SMILES | Activity [1] | Activity [2] | viability at 12.5 µM [3] | Activity [3] |
| --- | --- | --- | --- | --- |
| COc1cc(C[C@@H](COC(=O)/C=C\c2ccc(O)cc2)[C@H](COC(=O)/C=C\c2ccc(O)cc2)Cc2ccc(O)c(OC)c2)ccc1O | Toxic | Active | 74% | – |
| COc1cc([C@@H](O)[C@H](COC(=O)/C=C/c2ccc(O)cc2)Oc2ccc(/C=C/COC(=O)/C=C\c3ccc(O)cc3)cc2OC)ccc1O | Toxic | Active | – | Active |
| COc1cc([C@@H](O)[C@H](COC(=O)/C=C/c2ccc(O)cc2)Oc2ccc(/C=C/COC(=O)/C=C/c3ccc(O)cc3)cc2OC)ccc1O | Toxic | Active | – | Active |
| COc1cc(C[C@@H](COC(=O)/C=C\c2ccc(O)cc2)[C@H](COC(=O)/C=C/c2ccc(O)cc2)Cc2ccc(O)c(OC)c2)ccc1O | Toxic | Active | 73% | – |
| COc1cc([C@H](O)[C@H](COC(=O)/C=C\c2ccc(O)cc2)Oc2ccc(/C=C/COC(=O)/C=C/c3ccc(O)cc3)cc2OC)ccc1O | Toxic | Active | – | Active |
| COc1cc(C[C@@H](COC(=O)/C=C/c2ccc(O)cc2)[C@H](COC(=O)/C=C/c2ccc(O)cc2)Cc2ccc(O)c(OC)c2)ccc1O | Toxic | Active | 63% | – |
| COc1cc([C@H](O)[C@H](COC(=O)/C=C/c2ccc(O)cc2)Oc2ccc(/C=C/COC(=O)/C=C\c3ccc(O)cc3)cc2OC)ccc1O | Toxic | Active | – | Active |
| COc1cc([C@H](O)[C@H](COC(=O)/C=C/c2ccc(O)cc2)Oc2ccc(/C=C/COC(=O)/C=C/c3ccc(O)cc3)cc2OC)ccc1O | Toxic | Active | – | Active |
| COc1cc([C@@H](O)[C@H](COC(=O)/C=C\c2ccc(O)cc2)Oc2ccc(/C=C/COC(=O)/C=C/c3ccc(O)cc3)cc2OC)ccc1O | Toxic | Active | – | Active |
| Cc1c(C)c2c(c(C)c1O)CCC(C)(C(=O)O)O2 (stereo not drawn) [TROLOX] | – | – | 52% | – |
